Assay results published in patent US9556183B2, “Substituted pyrazolylpyrazole derivative and use of same as herbicide” (KYOYU AGRI CO., LTD., priority 2013, dated 2017).

Key:
Rice plants = assay: Paddy herbicidal activity test, phytotoxicity to transplanted rice; format: in vivo; conditions: rice transplanted at 2.0 leaf stage, 30 days
Procedure: (§1) Rice paddy soil was filled into a 1/10000 are pot followed by the addition of suitable amounts of water and chemical fertilizer, kneading, seeding with Echinochloa crus-galli, Monochoria vaginalis and Scirpus juncoides and maintaining in an irrigated state at a water depth of 3 cm. Wettable powder of Target Compound (I) shown in Table 1 prepared in compliance with the preparation examples were diluted with a suitable amount of water, rice plants in the 2.0 leaf stage were transplanted during 3.5 leaf stage of Echinochloa crus-galli, and treated by dropping in chemical in the prescribed amount per are using a pipette. After treating for 30 days in a glass greenhouse at an average atmospheric temperature of 30° C., the herbicidal efficacy thereof was investigated. Evaluation of herbicidal efficacy was carried out by comparing growth inhibition rate (%) with an untreated group, while evaluation of phytotoxicity was carried out by comparing growth inhibition rate (%) with the state of a complete eradication group, and were evaluated at 11 levels indicated below. [table]

Amaranthus retroflexus [1] = assay: Weed foliar treatment test; format: in vivo; conditions: foliar spray, 3 weeks
Procedure: (§2) Evaluation of herbicidal efficacy was carried out by comparing growth inhibition rate (%) with an untreated group, while evaluation of phytotoxicity was carried out by comparing growth inhibition rate (%) with the state of a complete eradication group, and were evaluated at 11 levels indicated below. [table] Soil was filled into a 1/6000 are pot followed by seeding with Digitaria ciliaris, Chenopodium album and Amaranthus retroflexus, covering with soil, and cultivating in a glass greenhouse at an average atmospheric temperature of 25° C. Wettable powder of Target Compound (I) shown in Table 1 prepared in compliance with the preparation examples were diluted with water to the prescribed amount of chemical and uniformly sprayed onto the weeds using 15 liters of sprayed water per are when Digitaria ciliaris had grown to the 1.0 to 2.0 leaf stage. After treating for 3 weeks in a glass greenhouse at an average atmospheric temperature of 25° C., the herbicidal efficacy thereof was investigated, Evaluation of herbicidal efficacy was carried out in the same manner as the above-mentioned Test Example 1.

Chenopodium album [2] = assay: Weed foliar treatment test; format: in vivo; conditions: foliar spray, 3 weeks
Procedure: as §2

Digitaria ciliaris [3] = assay: Weed foliar treatment test; format: in vivo; conditions: foliar spray at 1.0 to 2.0 leaf stage of Digitaria ciliaris, 3 weeks
Procedure: as §2

Amaranthus retroflexus [4] = assay: Farming soil treatment test; format: in vivo; conditions: soil surface spray prior to weed growth, 30 days
Procedure: (§3) Evaluation of herbicidal efficacy was carried out by comparing growth inhibition rate (%) with an untreated group, while evaluation of phytotoxicity was carried out by comparing growth inhibition rate (%) with the state of a complete eradication group, and were evaluated at 11 levels indicated below. [table] Field soil was filled into a 1/6000 are pot followed by seeding with Digitaria ciliaris, Chenopodium album and Amaranthus retroflexus and covering with soil. Wettable powder of compounds of formula (I) shown in Table 1 prepared in compliance with the preparation examples were diluted with water to the prescribed amount of chemical and uniformly sprayed onto each soil surface layer using 10 liters of sprayed water per are prior to weed growth following seeding. After treating for 30 days in a glass greenhouse at an average atmospheric temperature of 30° C., the herbicidal efficacy thereof was investigated. Evaluation of herbicidal efficacy was carried out in the same manner as the above-mentioned Test Example 1.

Chenopodium album [5] = assay: Farming soil treatment test; format: in vivo; conditions: soil surface spray prior to weed growth, 30 days
Procedure: as §3

Digitaria ciliaris [6] = assay: Farming soil treatment test; format: in vivo; conditions: soil surface spray prior to weed growth, 30 days
Procedure: as §3

Monochoria vaginalis = assay: Paddy herbicidal activity test; format: in vivo; conditions: irrigated paddy pot, 30 days
Procedure: as §1

Scirpus juncoides = assay: Paddy herbicidal activity test; format: in vivo; conditions: irrigated paddy pot, 30 days
Procedure: as §1

Echinochloa crus-galli = assay: Paddy herbicidal activity test; format: in vivo; conditions: irrigated paddy pot, treated at 3.5 leaf stage of Echinochloa crus-galli, 30 days
Procedure: as §1

| Structure (SMILES) | phytotoxicity (growth inhibition rate level) Rice plants (Rice plants; 1g a.i./10a) | phytotoxicity (growth inhibition rate level) Rice plants (Rice plants; 5g a.i./10a) | herbicidal efficacy (growth inhibition rate level) Amaranthus retroflexus (Amaranthus retroflexus [1]; 5g a.i./10a) | herbicidal efficacy (growth inhibition rate level) Amaranthus retroflexus (Amaranthus retroflexus [1]; 10g a.i./10a) | herbicidal efficacy (growth inhibition rate level) Chenopodium album (Chenopodium album [2]; 5g a.i./10a) | herbicidal efficacy (growth inhibition rate level) Chenopodium album (Chenopodium album [2]; 10g a.i./10a) | herbicidal efficacy (growth inhibition rate level) Digitaria ciliaris (Digitaria ciliaris [3]; 5g a.i./10a) | herbicidal efficacy (growth inhibition rate level) Digitaria ciliaris (Digitaria ciliaris [3]; 10g a.i./10a) | herbicidal efficacy (growth inhibition rate level) Amaranthus retroflexus (Amaranthus retroflexus [4]; 5g a.i./10a) | herbicidal efficacy (growth inhibition rate level) Amaranthus retroflexus (Amaranthus retroflexus [4]; 10g a.i./10a) | herbicidal efficacy (growth inhibition rate level) Chenopodium album (Chenopodium album [5]; 5g a.i./10a) | herbicidal efficacy (growth inhibition rate level) Chenopodium album (Chenopodium album [5]; 10g a.i./10a) | herbicidal efficacy (growth inhibition rate level) Digitaria ciliaris (Digitaria ciliaris [6]; 5g a.i./10a) | herbicidal efficacy (growth inhibition rate level) Digitaria ciliaris (Digitaria ciliaris [6]; 10g a.i./10a) | herbicidal efficacy (growth inhibition rate level) Monochoria vaginalis (Monochoria vaginalis; 1g a.i./10a) | herbicidal efficacy (growth inhibition rate level) Monochoria vaginalis (Monochoria vaginalis; 5g a.i./10a) | herbicidal efficacy (growth inhibition rate level) Scirpus juncoides (Scirpus juncoides; 1g a.i./10a) | herbicidal efficacy (growth inhibition rate level) Scirpus juncoides (Scirpus juncoides; 5g a.i./10a) | herbicidal efficacy (growth inhibition rate level) Echinochloa crus-galli (Echinochloa crus-galli; 1g a.i./10a) | herbicidal efficacy (growth inhibition rate level) Echinochloa crus-galli (Echinochloa crus-galli; 5g a.i./10a) | further results |
| --- | --- | --- | --- | --- | --- | --- | --- | --- | --- | --- | --- | --- | --- | --- | --- | --- | --- | --- | --- | --- | --- |
| N#Cc1cnn(-c2nn3c(c2Cl)CCCC3)c1NCC1CC1 [Compound 1, 1-(3-chloro-4,5,6,7-tetrahydropyrazolo[1,5-a]pyridin-2-yl)-5-(cyclopropylmethylamino)pyrazole-4-carbonitrile] | 0 (0 (exponent): 0% to less than 10% (growth inhibition rate)) | 1 (1: 10% to less than 20%) | 10 (10: 100%) | 10 (10: 100%) | 10 (10: 100%) | 10 (10: 100%) | 10 (10: 100%) | 10 (10: 100%) | 10 (10: 100%) | 10 (10: 100%) | 10 (10: 100%) | 10 (10: 100%) | 10 (10: 100%) | 10 (10: 100%) | 8 (8: 80% to less than 90%) | 8 (8: 80% to less than 90%) | 8 (8: 80% to less than 90%) | 9 (9: 90% to less than 100%) | 9 (9: 90% to less than 100%) | 10 (10: 100%) | melting point: 165 to 166 °C |
| N#Cc1cnn(-c2nn3c(c2Cl)CCCC3)c1N(CC1CC1(F)F)C(=O)C(F)(F)F (stereo not drawn) [Compound 186] | 0 (0 (exponent): 0% to less than 10% (growth inhibition rate)) | 1 (1: 10% to less than 20%) | 10 (10: 100%) | 10 (10: 100%) | 10 (10: 100%) | 10 (10: 100%) | 10 (10: 100%) | 10 (10: 100%) | 10 (10: 100%) | 10 (10: 100%) | 10 (10: 100%) | 10 (10: 100%) | 10 (10: 100%) | 10 (10: 100%) | 9 (9: 90% to less than 100%) | 9 (9: 90% to less than 100%) | 9 (9: 90% to less than 100%) | 10 (10: 100%) | 10 (10: 100%) | 10 (10: 100%) |  |
| N#Cc1cnn(-c2nn3c(c2Cl)CCCC3)c1NC1CC1 [Control agent 4.84, reference compound] | 0 (0 (exponent): 0% to less than 10% (growth inhibition rate)) | 2 (2: 20% to less than 30%) | 6 (6: 60% to less than 70%) | 7 (7: 70% to less than 80%) | 6 (6: 60% to less than 70%) | 7 (7: 70% to less than 80%) | 5 (5: 50% to less than 60%) | 6 (6: 60% to less than 70%) | 6 (6: 60% to less than 70%) | 6 (6: 60% to less than 70%) | 6 (6: 60% to less than 70%) | 6 (6: 60% to less than 70%) | 5 (5: 50% to less than 60%) | 5 (5: 50% to less than 60%) | 2 (2: 20% to less than 30%) | 3 (3: 30% to less than 40%) | 3 (3: 30% to less than 40%) | 4 (4: 40% to less than 50%) | 3 (3: 30% to less than 40%) | 5 (5: 50% to less than 60%) |  |
| N#Cc1cnn(-c2nn3c(c2Cl)CCCC3)c1NCC1CO1 (stereo not drawn) [Control agent 4.129, reference compound] | 1 (1: 10% to less than 20%) | 2 (2: 20% to less than 30%) | 7 (7: 70% to less than 80%) | 7 (7: 70% to less than 80%) | 6 (6: 60% to less than 70%) | 7 (7: 70% to less than 80%) | 4 (4: 40% to less than 50%) | 5 (5: 50% to less than 60%) | 6 (6: 60% to less than 70%) | 7 (7: 70% to less than 80%) | 6 (6: 60% to less than 70%) | 6 (6: 60% to less than 70%) | 4 (4: 40% to less than 50%) | 5 (5: 50% to less than 60%) | 0 (0 (exponent): 0% to less than 10% (growth inhibition rate)) | 0 (0 (exponent): 0% to less than 10% (growth inhibition rate)) | 3 (3: 30% to less than 40%) | 4 (4: 40% to less than 50%) | 1 (1: 10% to less than 20%) | 3 (3: 30% to less than 40%) |  |
